Legend:
[1] = Safety and tolerability of IN nalmefene, adverse events (Example 13); assay type: in vivo, human (healthy volunteers)
Excerpt: Safety: The Investigator evaluated safety using the following assessments: reported or observed AEs, clinical laboratory evaluations, vital sign measurements, physical examinations, ECGs (including telemetry), nasal irritation determined from nasal passage examinations, and NRS to determine acute nasal pain.

[2] = Phase 1 pharmacokinetic evaluation of nalmefene IN with and without Intravail vs IM injection
[3] = Treatment B (6 mg, 1 spray in each nostril)
[4] = Treatment C (6 mg, 2 sprays in 1 nostril)

C=C1CC[C@@]2(O)[C@H]3Cc4ccc(O)c5c4[C@@]2(CCN3CC2CC2)[C@H]1O5 [Nalmefene, 17-cyclopropylmethyl-4,5α-epoxy-6-methylenemorphinan-3,14-diol]
Tolerability ([1]; 3 mg and 6 mg dose, fasted healthy subjects): well-tolerated
Nasal congestion, instances ([1]; Treatment A): 1
Nasal discomfort, instances ([1]; Treatment A): 1
Nausea, instances ([1]; Treatment A): 1
Number of AEs reported ([1]; Treatment A (3 mg)): 20
Subjects reporting AEs ([1]; Treatment A (3 mg)): 43.5%
Nasal congestion, instances ([1]; Treatment B): 2
Nausea, instances ([1]; Treatment B): 5
Number of AEs reported [1, 3]: 24
Subjects reporting AEs [1, 3]: 60.9%
Nasal congestion, instances ([1]; Treatment C): 4
Nasal discomfort, instances ([1]; Treatment C): 3
Nausea, instances ([1]; Treatment C): 1
Number of AEs reported [1, 4]: 24
Subjects reporting AEs [1, 4]: 58.3%
Serious AEs or AEs leading to withdrawal or death ([1]; all treatments): no serious AEs
Severity of TEAEs ([1]; all treatments): mild
AUCextrap, mean ([2]; 1.5 mg IM): 22.6%
Cmax/D, mean ([2]; 1.5 mg IM): 1.12 ng/mL/mg
Lambda z, mean ([2]; 1.5 mg IM): 0.094 h⁻¹
AUCextrap, mean ([2]; 1.5 mg IN): 30.6%
Cmax/D, mean ([2]; 1.5 mg IN): 0.646 ng/mL/mg
Half-life, mean ([2]; 1.5 mg IN): 6.74 h
Lambda z, mean ([2]; 1.5 mg IN): 0.131 h⁻¹
AUCextrap, mean ([2]; 3 mg IN): 17.9%
Cmax/D, mean ([2]; 3 mg IN): 0.731 ng/mL/mg
Lambda z, mean ([2]; 3 mg IN): 0.101 h⁻¹
AUCextrap, mean ([2]; 3 mg plus […] Intravail IN): 14.6%
Cmax/D, mean ([2]; 3 mg plus […] Intravail IN): 1.65 ng/mL/mg
Lambda z, mean ([2]; 3 mg plus […] Intravail IN): 0.117 h⁻¹
concentration at 0 h ([2]; human, in vivo, 1.5 mg): 0 µg/mL
concentration at 0.04 h ([2]; human, in vivo, 1.5 mg): 0 µg/mL
concentration at 0.08 h ([2]; human, in vivo, 1.5 mg): 0 µg/mL
concentration at 30 h ([2]; human, in vivo, 1.5 mg): 0 µg/mL
concentration at 36 h ([2]; human, in vivo, 1.5 mg): 0 µg/mL
concentration at 48 h ([2]; human, in vivo, 1.5 mg): 0 µg/mL
concentration at 60 h ([2]; human, in vivo, 1.5 mg): 0 µg/mL
concentration at 72 h ([2]; human, in vivo, 1.5 mg): 0 µg/mL
concentration at 0 h ([2]; human, in vivo, 3 mg): 0 µg/mL
concentration at 0.04 h ([2]; human, in vivo, 3 mg): 0 µg/mL
concentration at 0.08 h ([2]; human, in vivo, 3 mg): 0 µg/mL
concentration at 48 h ([2]; human, in vivo, 3 mg): 0 µg/mL
concentration at 60 h ([2]; human, in vivo, 3 mg): 0 µg/mL
concentration at 72 h ([2]; human, in vivo, 3 mg): 0 µg/mL
